One assay deals with HEL 92.1.7 cells. The experiment in a line: Complement-dependent cytotoxicity (CDC) on MDR+ CD33-positive AML cell line. The assay is classed as cell-based, human. The conditions noted are these: HEL 92.1.7 cells; FIG. 4. How it is done: The purpose of this study was to determine whether the cytotoxic effects of an anti-CD33 antibody (HuM195) on AML cells could be enhanced by combination treatment with chemotherapeutic drugs. An MDR^+, CD33-positive AML cell line (HEL 92.1.7) was either untreated or preincubated with the indicated concentrations of thalidomide or 5-azacytidine for two hours prior to exposure to the anti-CD33 Ab. Cytotoxic activity was measured using a complement-dependent cytotoxicity (CDC) activity.

In a further assay the target is CD33 (Homo sapiens, UniProt P20138). In words: SGN-33 signaling in HL-60 cells, primary human monocytes and macrophages (CD33 immunoprecipitation, Western blot). The assay is classed as cell-based. The arrangement: endogenous in cells; host or cells: HL-60 (ATCC); primary human CD14+ monocytes (Cambrex); macrophages derived from human PBMCs. How it is done:
Deglycosylation was confirmed by CE-SDS. […] Cell lysates were prepared and CD33 immunoprecipitated using an anti-CD33 rabbit polyclonal antibody (Santa Cruz Biotechnology, Santa Cruz, Calif.) prior to SDS PAGE gel electrophoresis. Western blot analyses of these samples were performed using the 4G10 phosphotyrosine antibody (Upstate Biotechnology, Temucula, Calif.), anti-CD33 antibody (NovoCastra, Norwell, Mass.), and anti-SHP-1 antibody (Calbiochem, San Diego, Calif.). Control lysate for SHP-1 was prepared from a B cell lymphoma cell line.
For orientation: In western blotting, separated proteins are transferred to a membrane and probed.

Another assay has as its system human CD14+ monocytes. In words: Cytokine/chemokine production by primary human CD14+ monocytes. The assay is classed as cell-based.
[1] abbreviates: HL-60 AML cells and primary human monocytes or macrophages, soluble SGN-33, 30 minutes, FIG. 15.

Sequence of CD33 (P20138 18-364): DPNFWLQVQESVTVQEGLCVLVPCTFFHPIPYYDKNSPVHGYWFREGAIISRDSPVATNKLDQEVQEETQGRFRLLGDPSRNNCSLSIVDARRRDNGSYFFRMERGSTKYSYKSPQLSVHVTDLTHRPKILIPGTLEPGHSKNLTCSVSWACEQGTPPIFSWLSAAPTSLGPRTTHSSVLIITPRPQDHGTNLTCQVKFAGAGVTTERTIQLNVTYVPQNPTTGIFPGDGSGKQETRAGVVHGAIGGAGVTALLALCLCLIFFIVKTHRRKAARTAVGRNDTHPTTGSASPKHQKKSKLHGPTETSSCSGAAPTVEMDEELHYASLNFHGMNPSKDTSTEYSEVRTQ

As for “SGN-33: anti-CD33 antibody, a humanized version of mouse monoclonal antibody M195”, in the assay with HEL 92.1.7 cells, the “lysis of AML cells (CDC activity)” value was “increased lysis of AML cell lines in a dose-dependent manner”. Also, in the assay with CD33 (setting [1]), the “phosphorylation of CD33” value was “resulted in phosphorylation of CD33”. For the same substance, the “recruitment of SHP-1” value with CD33 (setting [1]) is “recruitment of SHP-1”. Besides, the “recruitment of SHP-1 to the CD33 complex” value with CD33 (HL-60 and monocytes, 30 minutes, FIG. 16) is “resulted in recruitment of SHP-1”. Besides, the “time to phosphorylation of CD33 and recruitment of SHP-1” value with CD33 (HL-60 cells, 3 μg/ml soluble SGN-33, FIG. 17) is not above 5 min. The “strength of the phosphorylation response (signal on western blot)” value in the assay with CD33 (primary monocytes compared to HL-60 or primary macrophages, opposite for SHP-1 signal, FIG. 15) is listed as “appeared to be stronger in primary monocytes”. Further, in the assay with human CD14+ monocytes (CD14+ primary human monocytes activated with IFN-γ, previous studies (Example 3)), the “production of IL-6, TNF-α, MCP-1, IL-8, and RANTES” value is listed as “significantly reduced”. Besides, the “level of RANTES” value with human CD14+ monocytes (adherent CD14+ monocytes, IFN-γ stimulated, FIG. 10) is listed as “reduced”; in the assay with human CD14+ monocytes (adherent CD14+ monocytes, RPMI-8228 conditioned media stimulated, FIG. 11), “reduced”. Besides, the “level of TNF-α” value in the assay with human CD14+ monocytes (adherent CD14+ monocytes, basal level, FIG. 11) was “reduced the basal level”. Besides, the “levels of IL-6, MCP-1, TNF-α, and IL-8” value in the assay with human CD14+ monocytes (adherent CD14+ monocytes, basal levels and IFN-γ stimulated levels, 48 hours, FIG. 10) is given as “reduced”. Moreover, the “levels of IL-6, MCP-1, and IL-8” value with human CD14+ monocytes (adherent CD14+ monocytes, basal levels and RPMI-8228 conditioned media stimulated levels, FIG. 11) was “reduced”. For the same substance, the “levels of IL-6, IL-8, TNF-α and MCP-1” value in the assay with human CD14+ monocytes (non-adherent CD14+ monocytes upon exposure to SGN-33, FIG. 12) was “small increases”. Also, the “production of cytokines, chemokines and growth factors” value in the assay on human CD14+ monocytes (non-adherent CD14+ monocytes, IFN-γ, FIG. 12) was “not inhibited”. For the same substance, in the assay with human CD14+ monocytes (non-adherent CD14+ monocytes, stimulated by RPMI-8226 conditioned media, FIG. 12), the “levels of IL-6, MCP-1, IL8 and RANTES” value was “reduced”. For the same substance, the “IFN-γ-stimulated production of IL-10, IL-10, IL-12, and MIP-1α” value in the assay on human CD14+ monocytes (primary human monocytes treated 1 hr prior to IFN-γ, supernatants 18 h later, p<0.001, FIG. 19) is “significantly reduced”. Also, the “levels of TNF-α” value in the assay on human CD14+ monocytes (primary human monocytes, various doses of SGN-33, 1 hr prior to IFN-γ, 18 h, p<0.05, FIG. 20) is given as “significantly reduced levels of TNF-α in a dose-dependent manner”.
